Measurements published in patent US20250074946A1, “USE OF SE-DR AFFINITY PEPTIDE IN PREPARING DRUG FOR TREATING RHEUMATIC DISEASE” (HEBEI FITNESS BIOTECHNOLOGY CO., LTD., priority 2021, published 2025).
pIC50: −log10 of the molar value. Where no end group is shown, it is not given here.

Key:
CIA rats [1] = assay: APL20 in combination with methotrexate in CIA rats (Example 11); format: in vivo, rat
CIA rats [2] = assay: as above; format: in vivo, rat; settings: for inflammation score during drug discontinuation compared with that at the time of drug discontinuation: 21 days of observation after stopping at day 21; for Pathological score during 21 days of drug discontinuation: HE staining of ankle joint, score 0-4; for AUC, during drug discontinuation (day 22-42): inflammation score AUC after stopping administration at day 21
Text: Female Lewis rats were used to establish CIA model. Methods: the rats were immunized by intradermal injecting the emulsion prepared by bovine C II and IFA at the tail head. After 7 days, the rats were boosted once with the same method. Thereafter, the morphological changes of the four paws of the rats were examined every day, and the rats were randomly assigned to the treatment group at the inflammation score of 1. […] Another 8 female Lewis rats were not subjected to model establishment and set as the control group. PBS was administrated to both the model group and the control group. Corresponding drugs were administrated to the rats in each group by tail vein injection at the volume of 5 mL/kg, in which methotrexate was administrated twice a week, and other drugs were administrated once every other day, for 21 consecutive days, followed by a recovery period of 21 days. The inflammation scores of the four paws of the rats in each group were evaluated during the administration (once every other day), and the area under the curve (AUC) of the inflammation score was calculated during the administration. During drug discontinuation, the inflammation scores of the four paws of the rats in each group were continuously evaluated (once every other day), and the rats were sacrificed on day 22 after drug discontinuation. HE staining was performed on the ankle joint for tissue injury evaluation. The specific scoring criteria were as follows: 0=normal synovial tissue; 1=synovial hyperplasia and inflammatory cell infiltration; 2-pannus formation and cartilage erosion; 3=destruction of most of the cartilage with subchondral bone erosion; 4=loss of joint integrity, ankylosis.

rats = settings: cited from earlier work
[3] = test system: CIA rats with latent tuberculosis infection
[4] = test system: CIA mice infected with chronic hepatitis B; assay: CIA mice infected with chronic hepatitis B (Example 8); format: in vivo, mouse
Description: Establishment of chronic hepatitis B model in mice: DBA/1 mice were injected with Raav8-1. 3 HBV (1×10^12 vg/mL) via tail vein to establish HBV chronic hepatitis B model.
DBA/1 mice infected with chronic hepatitis B were used to establish CIA model with chronic hepatitis B infection. Methods: Two days after the mice were injected with Raav8-1.3 HBV (1×10^12 vg/mL) via tail vein, the emulsion of bovine C II and CFA (containing 100 μg collagen) was intradermally injected into the tail head of the mice for immunization. After 21 days, the mice were boosted once by intraperitoneal injection of the emulsion (containing 100 μg collagen) prepared by bovine C II and IFA. Thereafter, the morphological changes of the four paws of the mice were examined every day, and the mice were randomly assigned to the treatment group at inflammation score of 1. […] Another 10 mice with latent hepatitis B infection were not subjected to model establishment and set as the control group. PBS was administrated to both the model group and the control group. The mice in each group were given the corresponding drugs by tail intravenous injection at the volume of 10 ml/kg, once every other day, for 27 consecutive days. The mice were sacrificed on day 28 after administration. The inflammation scores of the four paws of the mice in each group were evaluated during the administration. The serological indicators for virus injection and liver function of the mice were detected on the day of booster immunization (22 days after tail vein injection) and at the time of sacrifice.

[5] = test system: immune system of healthy monkeys; assay: Immune indicators of cynomolgus monkeys after one month of administration (Example 5); format: in vivo, cynomolgus monkey; settings: once a day for 4 weeks, end of administration
Text: Cynomolgus monkeys were used to investigate the effects of the SE-DR affinity peptide on the immune indicators of cynomolgus monkeys after continuous administration for one month. […] At the end of administration, the immune indicators, including the serum anti-FNS007 antibodies, the immunoglobulins of different serotypes, the serum complement, the peripheral blood T lymphocyte and the serum cytokines, were observed.

[6] = test system: immune system of healthy rats; assay: Immune indicators of SD rats after one month of administration (Example 4); format: in vivo, rat; settings: once a day for 4 weeks, end of administration
Description: SD rats were used to investigate the effects of the SE-DR affinity peptides on the immune indicators of the rats after continuous administration for one month. […] At the end of administration, analysis was conducted on the serum anti-FNS007 antibodies, different types of serum immunoglobulins, the serum complement, the peripheral blood T lymphocyte and the serum cytokines.

CIA rats [7] = assay: CIA rat model: inflammation score AUC and peripheral blood T-cell subtypes (Example 3); format: in vivo; settings: 0.2 mmol
Description: Collagen-induced arthritis (CIA) model was established by intradermal injection of the emulsion formulated using type II bovine collagen (CII) together with incomplete Freund's adjuvant (IFA) into the tail head of a female Lewis rat. After the model establishment, the morphological changes of rats' four paws were examined every day. […] Except for the model group, the dosage of polypeptide was all set as 0.2 mmol. A control group was also set up, in which the drug was injected into the tail vein once every other day for […]. The area under the curve (AUC) of the inflammation score was used for the efficacy analysis from the day the rats were enrolled, once every other day, until the end of administration.

PBMC = PBMC stimulation test, IL-6 in supernatant by ELISA; format: cell-based, human; settings: PBMC 1×10^6 cell/ml, peptide 10 μg/ml, 5 days of culture
Text: The SE-DR molecule is directly related to the pathogenesis of RA. It can present RA-related autoantigens in vivo, such as type II collagen (CII), heat shock protein 60 (Hsp60), cartilage glycoprotein (HCgp-39) and so on, and further activate autoreactive T cells, leading to the occurrence of rheumatoid arthritis. An important strategy for the treatment of RA is to use competitive inhibition to block the activation of autoreactive T cells by autoantigen peptides. […] Based on the above principles, we have designed and synthesized a series of altered peptide ligands, and screened for their affinity to SE-DR and for the activation ability on the peripheral blood T cells in RA patients. The specific steps and results are shown in Example 1 and Example 2.
3 mL ficoll was added to a 15 mL centrifuge tube, and 4 mL blood sample was then applied on the surface of ficoll. The tube was centrifuged at 400 g at 18-20° C. for 30-40 min. The upper layer of plasma was aspirated with a Pasteur pipette, and the PBMC layer (approximately 2 mL) was aspirated, and added to a 14 mL centrifuge tube previously filled with at least 3 volumes (6 mL) of PBS. The mixture was gently resuspended. The tube was centrifuged at 60-100 g for 10 min at 18-20° C. After centrifugation, the supernatant was removed with a Pasteur pipette, and the resulting cell mass was resuspended in 6-8 mL PBS and centrifuged at 18-20° C. for 10 min at 60-100 g to remove the supernatant. The cells were resuspended in an appropriate amount of 1640 complete medium and diluted to 1×10^6 cell/ml after cell counting. The diluted cell suspension was added to a 96-well plate. The positive control, allosteric peptide, was added to 100 μl cell culture to a final concentration of 10 μg/ml. The mixture was replenished to 200 μL with 1640 complete medium. After 5 days of culture, the supernatant was aspirated, centrifuged at 3000 rpm for 5 minutes, and the level of IL-6 in the supernatant was detected by ELISA.

HLA-DR1 [8] = assay: Determination of polypeptide affinity (fluorescence polarization competition); format: binding, human; settings: competition with 25 nM fluorescently-labeled polypeptide, 500 nM HLA-DR1, pH 7.4, 37° C. 30 min, fluorescence polarization, curve fitting
Description: (§1) The reaction system was at pH 7.4. Before use, protease inhibitor cocktail was added, and incubated at 37° C. for 30 min. The fluorescence polarization values were read. The mean value of the free labeled polypeptides was set as FP_free, and the value of the well without the competitive peptide was set as FP_no_comp. The relative binding rate of other wells was calculated according to the formula=(FP_sample−FP_free)/(FP_no_comp−FP_free). A curve was plotted using the relative binding rate and the concentration of the test polypeptide, and the IC50 value was calculated by curve fitting.

HLA-DR1 [9] = target: HLA-DR1 (Homo sapiens, UniProt P01903+P01911, A100R/D57E/F55L/F60I/F76Y/I96L/L162R/M171V/P40L/Q125E/R42F/V115G/Y59C); assay: as above; format: binding
Description: as §1

[10] = inflammation score AUC, APL20 0.2 mmol once every other day, methotrexate 0.5 mg/kg twice a week, i.v.
[11] = peripheral blood, […] after end of administration, flow cytometry

CN(Cc1cnc2nc(N)nc(N)c2n1)c1ccc(C(=O)N[C@@H](CCC(=O)O)C(=O)O)cc1 [Methotrexate, methotrexate]
Incidence of infection in mice (CIA rats [1]): 20% | inflammation score during drug discontinuation compared with that at the time of drug discontinuation (CIA rats [2]): significantly increased | Pathological score during 21 days of drug discontinuation (CIA rats [2]): 2.87 ± 0.79 | AUC, during drug discontinuation (day 22-42) (CIA rats [2]): 100.13 ± 50.66 | AUC, during administration (day 1-21) (CIA rats [2]; [10]): 67.69 ± 22.72 | AUC, the first week during administration (CIA rats [2]; [10]): 16.58 ± 5.23 | AUC, during administration (day 1-21) (CIA rats [2]; inflammation score AUC, APL20 0.2 mmol once every other day, methotrexate 0.5 mg/kg twice a week, i.v., listed as methotrexate): 67.69 | half lethal dose (rats): 43 mg/kg

SIDLKDKKYKNIGAKLVQLVANNTNEEA [APL20]
Incidence of infection in mice (CIA rats [1]): 0% | Observation on the daily condition of rats ([3]; during administration): No abnormality | Tuberculosis recurrence rate ([3]; peptides 0.2 mmol, adalimumab 1 mg/kg, 21 days): 0% | Inflammation score and area under the time curve (AUC) ([3]; peptides 0.2 mmol, adalimumab 1 mg/kg, tail i.v. once every other day for 21 days): 49.62 ± 35.87 | Culture of MTB from lungs and spleens of rats at sacrifice ([3]; sacrifice on day 22, peptides 0.2 mmol, adalimumab 1 mg/kg): Negative | inflammation score during drug discontinuation compared with that at the time of drug discontinuation (CIA rats [2]): could maintain the therapeutic effect | Pathological score during 21 days of drug discontinuation (CIA rats [2]): 2.05 ± 0.34 | AUC, during drug discontinuation (day 22-42) (CIA rats [2]): 50.11 ± 41.27 | ALT level ([4]; at sacrifice, day 28): 46.28 ± 17.99 U/L | Hepatitis B activation rate (Ratio of ALT > 100 U/L) ([4]; at sacrifice, day 28): 0% | Observation on the daily condition of mice ([4]; during administration): No abnormality | Inflammation score and area under the time curve (AUC) ([4]; peptides 50 μmol, Abatacept 100 μg, tail i.v. once every other day for 27 days): 92.34 ± 53.29 | CD3% [5]: 62.96 ± 9.77% | CD4% [5]: 27.82 ± 8.05% | CD8% [5]: 22.97 ± 7.09% | IFN-γ [5]: 5.18 ± 0.33 pg/mL | IL-2 [5]: 4.55 ± 0.71 pg/mL | IL-4 [5]: 2.16 ± 0.36 pg/mL | TNF-α [5]: 2.45 ± 0.38 pg/mL | CD3% [6]: 36.96 ± 9.81% | CD4% [6]: 18.96 ± 5.98% | CD8% [6]: 17.99 ± 8.23% | IFN-γ [6]: 2.58 ± 0.29 pg/mL | IL-2 [6]: 3.55 ± 2.75 pg/mL | IL-4 [6]: 2.03 ± 1.01 pg/mL | TNF-α [6]: 5.09 ± 1.88 pg/mL | Inflammation score and area under the time curve (AUC) (CIA rats [7]; female Lewis CIA rats, tail vein once every other day for 15 days): 55.31 ± 40.23 | Th1 (%) (CIA rats [7]; [11]): 0.18 ± 0.07 % | Th2 (%) (CIA rats [7]; [11]): 4.35 ± 0.62 % | Th17 (%) (CIA rats [7]; [11]): 0.88 ± 0.07 % | Treg (%) (CIA rats [7]; [11]): 5.46 ± 0.81 % | IL-6 levels in the supernatant (PBMC): 2.7 ng/mL

AVKHNALKWA [APL52]
pIC50 (HLA-DR1 [8]): < 4.00

RSFTAASSETGVG [APL14]
pIC50 (HLA-DR1 [8]): 5.18

PGYVKQGTLGLAT [APL3]
pIC50 (HLA-DR1 [9]): 5.48
